Legend:
[1] = tested on: ALOMY; experiment: Pre-emergence action against ALOMY, 1280 g/ha; format: in vivo, Alopecurus myosuroides; settings: visual scoring after about 3 weeks vs untreated controls, 100% = plants have died, 0% = like control plants
Procedure, shortened: (§1)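 Visual % scoring, roughly 3 weeks post-application, against untreated controls; 100% means plants died. Treatment went onto the soil covering sown seeds (sandy loam), as aqueous suspension or emulsion plus 0.5% additive.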

[2] = tested on: KCHSC; experiment: Pre-emergence action against KCHSC, 1280 g/ha; format: in vivo, Bassia scoparia; settings: scored visually after about 3 weeks vs untreated controls (100% = plants have died)
Procedure, shortened: as §1

[3] = tested on: VERPE; experiment: Pre-emergence action against VERPE, 1280 g/ha; format: in vivo, Veronica persica; settings: scored visually after about 3 weeks vs untreated controls (100% = plants have died)
Procedure, shortened: as §1

[4] = tested on: LOLRI; experiment: Pre-emergence action at 320 g/ha against LOLRI; format: in vivo, Lolium rigidum; settings: visual scoring after about 3 weeks vs untreated controls
Procedure, shortened: (§2)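 Compounds were sprayed onto soil over sown seeds as emulsions or suspensions with 0.5% additive at a water rate of 600 l/ha. After about 3 weeks in the greenhouse, effect was rated visually as percent (100% = died).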

[5] = tested on: MATIN; experiment: Pre-emergence action at 320 g/ha against MATIN; format: in vivo, Tripleurospermum inodorum (Matricaria inodora); settings: visual scoring after about 3 weeks vs untreated controls
Procedure, shortened: as §2

[6] = tested on: KCHSC; experiment: Post-emergence action against KCHSC, 1.28 kg/ha; format: in vivo, Bassia scoparia; settings: dosage 1280 g/ha, visual rating about 3 weeks after treatment vs untreated controls (100% = plants died)
Procedure, shortened: (§3)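 Greenhouse pot test, sandy loam; weeds sprayed post-emergence at one-leaf stage (2–3 weeks after sowing) with WP or EC formulation plus 0.5% additive, 600 l/ha water. Visual rating after about 3 weeks versus untreated controls, 100% = plants dead, 0% = like control.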

[7] = tested on: STEME; experiment: Post-emergence action against STEME, 1.28 kg/ha; format: in vivo, Stellaria media; settings: dosage 1280 g/ha, visual rating about 3 weeks after treatment vs untreated controls (100% = plants died)
Procedure, shortened: as §3

[8] = tested on: VERPE; experiment: Post-emergence action against VERPE, 1.28 kg/ha; format: in vivo, Veronica persica; settings: dosage 1280 g/ha, visual rating about 3 weeks after treatment vs untreated controls (100% = plants died)
Procedure, shortened: as §3

[9] = tested on: ECHCG; experiment: Post-emergence action at 320 g/ha against ECHCG; format: in vivo, Echinochloa crus-galli; settings: dosage 320 g/ha, visual rating about 3 weeks after treatment vs untreated controls (100% = plants died)
Procedure, shortened: (§4)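 Greenhouse pot plants in sandy loam received a foliar spray of WP- or EC-formulated compound at the one-leaf stage. Percent activity against untreated controls was assessed visually around three weeks later.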

[10] = tested on: AVEFA; experiment: Post-emergence action at 320 g/ha against AVEFA; format: in vivo; settings: visual rating about 3 weeks after treatment vs untreated controls
Procedure, shortened: as §4

[11] = tested on: ECHGC; experiment: Pre-emergence action at 320 g/ha against ECHGC; format: in vivo, Echinochloa crus-galli; settings: visual scoring after about 3 weeks vs untreated controls
Procedure, shortened: as §2

[12] = tested on: DIGSA; experiment: Post-emergence action at 320 g/ha against DIGSA; format: in vivo, Digitaria sanguinalis; settings: dosage 320 g/ha, visual rating about 3 weeks after treatment vs untreated controls (100% = plants died)
Procedure, shortened: as §4

| Compound | Pre-emergence action against ALOMY [1] | Pre-emergence action against KCHSC [2] | Pre-emergence action against VERPE [3] | Pre-emergence action against LOLRI in % [4] | Pre-emergence action against MATIN in % [5] | Post-emergence action against KCHSC [6] | Post-emergence action against STEME [7] | Post-emergence action against VERPE [8] | Post-emergence action at 320 g/ha against ECHCG in % [9] | Post-emergence action against AVEFA in % [10] | Pre-emergence action against ECHGC in % [11] | Post-emergence action at 320 g/ha against DIGSA in % [12] |
| --- | --- | --- | --- | --- | --- | --- | --- | --- | --- | --- | --- | --- |
| COC(=O)[C@@H](C)Oc1nn(-c2ccccc2F)c(-c2ccnc(F)c2)c1Br [VIII-006] | 100% | 100% | 100% | 100% | 90% | 90% | 100% | 90% | 90% | 80% |  |  |
| CCOC(=O)C(C)Oc1nn(-c2ccccc2F)c(-c2ccc(F)nc2)c1C(F)(F)F (stereo not drawn) [VII-066] | 100% |  | 100% | 90% | 100% | 90% | 100% | 90% | 80% |  | 90% | 90% |
| CCOC(=O)COc1nn(-c2ccccc2F)c(-c2ccc(F)nc2)c1C [VII-117] | 100% |  | 100% | 100% | 90% |  |  | 100% |  | 90% | 90% | 90% |
| COC(=O)[C@H](C)Oc1nn(-c2cc(F)ccc2F)c(-c2ccc(F)nc2)c1Br [VII-107] | 90% |  | 100% | 80% | 90% |  | 100% | 100% | 80% |  |  | 90% |
| COC(=O)[C@@H](C)Oc1nn(-c2ccccc2)c(-c2cncnc2)c1Br [VI-013] | 90% | 100% | 100% | 90% | 90% | 100% | 100% | 100% |  | 80% | 90% | 90% |
| O=C(COc1nn(-c2ccccc2F)c(-c2ccc(F)nc2)c1Br)OCC1CCOC1 (stereo not drawn) [VII-091] | 100% |  | 100% | 100% | 90% |  | 90% | 100% |  | 80% |  | 90% |
| CCOC(=O)COc1nn(-c2ccccc2F)c(-c2ccc(F)nc2)c1I [VII-036] | 100% |  | 100% |  | 90% |  | 100% | 100% | 80% | 80% | 90% | 90% |
| COC(=O)CNC(=O)COc1nn(-c2ccccc2F)c(-c2ccc(F)nc2)c1C(F)(F)F [Example X-007] | 100% |  | 100% | 100% | 100% |  | 100% | 90% | 80% | 80% |  |  |
| O=C(COc1nn(-c2ccccc2F)c(-c2ccc(F)nc2)c1Br)OCC1OCCO1 [VII-103] | 100% |  | 100% | 100% | 90% |  |  | 100% | 80% | 80% | 80% | 90% |
| COCCOC(=O)COc1nn(-c2ccccc2F)c(-c2ccc(F)nc2)c1Br [VII-052] | 100% |  | 100% | 100% | 90% |  | 100% | 100% |  | 90% | 90% | 90% |
| O=C(O)COc1nn(-c2ccccc2F)c(-c2ccc(F)nc2)c1I [VII-037] | 100% |  | 100% | 100% | 80% |  | 100% | 100% | 80% | 80% | 80% | 90% |
| COC(=O)COc1nn(-c2cc(F)ccc2F)c(-c2ccc(F)nc2)c1Br [VII-089] | 100% |  | 100% | 100% | 90% |  | 100% | 90% |  | 80% | 80% | 90% |
| COC(=O)[C@@H](C)Oc1nn(-c2cc(F)ccc2F)c(-c2cncc(F)c2)c1C#N [VII-147] | 100% | 100% | 100% | 100% | 90% | 90% | 100% | 100% | 80% | 80% | 100% |  |
| C[C@@H](Oc1nn(-c2ccccc2F)c(-c2cncnc2)c1Br)C(=O)O [VI-012] | 90% | 100% | 100% | 90% | 90% | 90% | 90% | 90% |  | 90% | 80% |  |
| CCOC(=O)C(C)Oc1nn(-c2ccccc2F)c(-c2ccc(F)nc2)c1I (stereo not drawn) [VII-057] | 100% | 100% | 100% | 90% | 90% | 90% |  | 90% |  |  |  | 90% |
